Experimental findings from ChEMBL document CHEMBL1130630, “Structure-based design of peptidomimetic ligands of the Grb2-SH2 domain” (Bioorg Med Chem Lett, 1998) are described below.

The target of this experiment is Growth factor receptor-bound protein 2 (Homo sapiens, UniProt P62993). In words: Inhibition of Growth factor receptor bound protein 2 SH2 domain binding to phospho-EGFR by ELISA.

Each structure is given as a SMILES string. Square brackets hold non-standard residues; d marks the D form. Peptide text beside a SMILES is read from it. pY = N[C@@H](Cc1ccc(OP(=O)(O)O)cc1)C(=O)O

Growth factor receptor-bound protein 2, sequence (P62993 whole entry, the tested form may be a part): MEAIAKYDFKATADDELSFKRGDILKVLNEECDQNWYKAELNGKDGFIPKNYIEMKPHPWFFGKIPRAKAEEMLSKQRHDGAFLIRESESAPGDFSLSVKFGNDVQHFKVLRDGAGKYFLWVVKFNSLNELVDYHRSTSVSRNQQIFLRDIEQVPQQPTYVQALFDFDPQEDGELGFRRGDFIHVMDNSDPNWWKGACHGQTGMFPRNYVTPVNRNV

As to `CC(=O)N[C@@H](Cc1ccc(OP(=O)(O)O)cc1)C(=O)NCc1cccc(NC(N)=O)c1`, the IC50 is 48.7 µM. The figure for `CC(=O)N[C@@H](Cc1ccc(OP(=O)(O)O)cc1)C(=O)N[C@@H](CCC(N)=O)c1cccc(NC(N)=O)c1` is 6.5 µM; for `CC(=O)N[C@@H](Cc1ccc(OP(=O)(O)O)cc1)C(=O)N[C@H](c1cccc(NC(N)=O)c1)C(C)C` it is 6.19 µM. Regarding `CC(=O)N[C@@H](Cc1ccc(OP(=O)(O)O)cc1)C(=O)N[C@@H](CCC(N)=O)C(=O)N[C@@H](CC(N)=O)C(N)=O` (Ac-[pY]-Gln-Asn-NH2), the IC50 was 5.44 µM. As for `CC(=O)N[C@@H](Cc1ccc(OP(=O)(O)O)cc1)C(=O)NCC(=O)N[C@@H](CC(N)=O)C(N)=O` (Ac-[pY]-Gly-Asn-NH2), the IC50 worked out at 67 µM. The figure for `CC(=O)N[C@@H](Cc1ccc(OP(=O)(O)O)cc1)C(=O)N[C@H](C(=O)N[C@@H](CC(N)=O)C(N)=O)C(C)C` (Ac-[pY]-Val-Asn-NH2) is 4.32 µM.

As a reminder, the IC50 is the concentration that inhibits the measured activity by half.
